# Source: ChEMBL document CHEMBL4138123, “Design, synthesis and biological evaluation of novel pyrazolochalcones as potential modulators of PI3K/Akt/mTOR pathway and inducers of apoptosis in breast cancer cells” (Eur J Med Chem, 2017)
# Key:
# Format in all cases: functional
# NCI-H322M = assay: Cytotoxicity against human NCI-H322M cells assessed as cell growth at 0.01 uM after 48 hrs by sulforhodamine B assay relative to control; settings: read-out: Activity
# MCF7 = assay: Cytotoxicity against human MCF7 cells assessed as cell growth at 100 uM after 48 hrs by sulforhodamine B assay relative to control; settings: MCF7, 48 h, read-out: Activity
# MOLT-4 [1] = assay: Cytotoxicity against human MOLT4 cells assessed as cell growth at 100 uM after 48 hrs by sulforhodamine B assay relative to control; settings: MOLT-4, 48 h, read-out: Activity
# RPMI-8226 [2] = assay: Cytotoxicity against human RPMI8226 cells assessed as growth inhibition after 48 hrs by sulforhodamine B assay; settings: RPMI-8226, 48 h
# SN12C [3] = assay: Cytotoxicity against human SN12C cells assessed as cell growth at 0.1 uM after 48 hrs by sulforhodamine B assay relative to control; settings: read-out: Activity
# SK-OV-3 = assay: Cytotoxicity against human SKOV3 cells assessed as growth inhibition after 48 hrs by sulforhodamine B assay; settings: SK-OV-3, 48 h
# T47D [4] = assay: Cytotoxicity against human T47D cells assessed as cell growth at 10 uM after 48 hrs by sulforhodamine B assay relative to control; settings: read-out: Activity
# HCC 2998 [5] = assay: Cytotoxicity against human HCC2998 cells assessed as cell growth at 0.01 uM after 48 hrs by sulforhodamine B assay relative to control; settings: HCC 2998, 48 h, read-out: Activity
# Hs-578T = assay: Cytotoxicity against human Hs 578T cells assessed as cell growth at 0.1 uM after 48 hrs by sulforhodamine B assay relative to control; settings: read-out: Activity
# SW-620 = assay: Cytotoxicity against human SW620 cells assessed as growth inhibition after 48 hrs by sulforhodamine B assay; settings: SW-620, 48 h
# COLO 205 [6] = assay: Cytotoxicity against human COLO205 cells assessed as cell growth at 10 uM after 48 hrs by sulforhodamine B assay relative to control; settings: COLO 205, 48 h, read-out: Activity
# A549 [7] = assay: Cytotoxicity against human A549/ATCC cells assessed as cell growth at 0.01 uM after 48 hrs by sulforhodamine B assay relative to control; settings: A549, 48 h, read-out: Activity
# OVCAR-4 = assay: Cytotoxicity against human OVCAR4 cells assessed as cell growth at 1 uM after 48 hrs by sulforhodamine B assay relative to control; settings: OVCAR-4, 48 h, read-out: Activity
# TK-10 = assay: Cytotoxicity against human TK10 cells assessed as cell growth at 100 uM after 48 hrs by sulforhodamine B assay relative to control; settings: TK-10, 48 h, read-out: Activity
# 786-0 = assay: Cytotoxicity against human 786-0 cells assessed as cell growth at 0.1 uM after 48 hrs by sulforhodamine B assay relative to control; settings: 786-0, 48 h, read-out: Activity
# T47D [8] = assay: Cytotoxicity against human T47D cells assessed as cell growth at 0.1 uM after 48 hrs by sulforhodamine B assay relative to control; settings: read-out: Activity
# ACHN = assay: Cytotoxicity against human ACHN cells assessed as cell growth at 0.01 uM after 48 hrs by sulforhodamine B assay relative to control; settings: read-out: Activity
# A549 [9] = assay: Cytotoxicity against human A549/ATCC cells assessed as growth inhibition after 48 hrs by sulforhodamine B assay; settings: A549, 48 h
# A549 [10] = assay: Cytotoxicity against human A549/ATCC cells assessed as cell growth at 1 uM after 48 hrs by sulforhodamine B assay relative to control; settings: A549, 48 h, read-out: Activity
# COLO 205 [11] = assay: Cytotoxicity against human COLO205 cells assessed as cell growth at 0.1 uM after 48 hrs by sulforhodamine B assay relative to control; settings: COLO 205, 48 h, read-out: Activity
# SN12C [12] = assay: Cytotoxicity against human SN12C cells assessed as cell growth at 0.01 uM after 48 hrs by sulforhodamine B assay relative to control; settings: read-out: Activity
# SR = assay: Cytotoxicity against human SR cells assessed as growth inhibition after 48 hrs by sulforhodamine B assay; settings: for CC50: read-out: LC50 (the source's name)
# HCC 2998 [13] = assay: Cytotoxicity against human HCC2998 cells assessed as growth inhibition after 48 hrs by sulforhodamine B assay; settings: HCC 2998, 48 h
# SNB-19 = assay: Cytotoxicity against human SNB19 cells assessed as growth inhibition after 48 hrs by sulforhodamine B assay; settings: SNB-19, 48 h; for CC50: read-out: LC50 (the source's name)
# OVCAR-5 = assay: Cytotoxicity against human OVCAR5 cells assessed as growth inhibition after 48 hrs by sulforhodamine B assay; settings: OVCAR-5, 48 h
# RPMI-8226 [14] = assay: Cytotoxicity against human RPMI8226 cells assessed as cell growth at 0.1 uM after 48 hrs by sulforhodamine B assay relative to control; settings: RPMI-8226, 48 h, read-out: Activity
# HCT-116 = assay: Cytotoxicity against human HCT116 cells assessed as cell growth at 1 uM after 48 hrs by sulforhodamine B assay relative to control; settings: HCT-116, 48 h, read-out: Activity
# MDA-MB-435 [15] = assay: Cytotoxicity against human MDA-MB-435 cells assessed as cell growth at 1 uM after 48 hrs by sulforhodamine B assay relative to control; settings: MDA-MB-435, 48 h, read-out: Activity
# HCT-15 = assay: Cytotoxicity against human HCT15 cells assessed as cell growth at 0.01 uM after 48 hrs by sulforhodamine B assay relative to control; settings: HCT-15, 48 h, read-out: Activity
# MOLT-4 [16] = assay: Cytotoxicity against human MOLT4 cells assessed as cell growth at 0.1 uM after 48 hrs by sulforhodamine B assay relative to control; settings: MOLT-4, 48 h, read-out: Activity
# UO-31 = assay: Cytotoxicity against human UO31 cells assessed as cell growth at 1 uM after 48 hrs by sulforhodamine B assay relative to control; settings: UO-31, 48 h, read-out: Activity
# U-251 = assay: Cytotoxicity against human U251 cells assessed as cell growth at 1 uM after 48 hrs by sulforhodamine B assay relative to control; settings: U-251, 48 h, read-out: Activity
# A498 = assay: Cytotoxicity against human A498 cells assessed as growth inhibition after 48 hrs by sulforhodamine B assay; settings: A498, 48 h
# M14 = assay: Cytotoxicity against human M14 cells assessed as cell growth at 100 uM after 48 hrs by sulforhodamine B assay relative to control; settings: M14, 48 h, read-out: Activity
# K562 = assay: Cytotoxicity against human K562 cells assessed as cell growth at 1 uM after 48 hrs by sulforhodamine B assay relative to control; settings: K562, 48 h, read-out: Activity
# MDA-MB-435 [17] = assay: Cytotoxicity against human MDA-MB-435 cells assessed as cell growth at 10 uM after 48 hrs by sulforhodamine B assay relative to control; settings: MDA-MB-435, 48 h, read-out: Activity
smiles,measurement,setting,value
COc1ccc(C(=O)/C=C/c2cc(-c3ccc4c(c3)OCO4)n[nH]2)cc1OC,growth at 0.01 µM,NCI-H322M,93%
same,growth at 100 µM,MCF7,-48%
same,growth at 100 µM,MOLT-4 [1],-20%
same,LC50,RPMI-8226 [2],> 100 µM
same,TGI,RPMI-8226 [2],5.24 µM
same,growth at 0.1 µM,SN12C [3],95%
same,LC50,SK-OV-3,> 100 µM
same,TGI,SK-OV-3,26.4 µM
same,growth at 10 µM,T47D [4],22%
same,growth at 0.01 µM,HCC 2998 [5],98%
same,growth at 0.1 µM,Hs-578T,92%
same,"LC50 (lethal concentration, 50% net cell kill)",SW-620,15.9 µM
same,TGI,SW-620,4.81 µM
same,growth at 10 µM,COLO 205 [6],14%
same,growth at 0.01 µM,A549 [7],96%
same,growth at 1 µM,OVCAR-4,65%
same,growth at 100 µM,TK-10,-58%
same,growth at 0.1 µM,786-0,95%
same,growth at 0.1 µM,T47D [8],94%
same,growth at 0.01 µM,ACHN,101%
same,LC50 (concentration giving 50% net cell kill),A549 [9],> 100 µM
same,TGI,A549 [9],15.8 µM
same,growth at 1 µM,A549 [10],85%
same,growth at 0.1 µM,COLO 205 [11],103%
same,growth at 0.01 µM,SN12C [12],92%
same,TGI,SR,6.48 µM
same,CC50,SR,> 100 µM
same,LC50,HCC 2998 [13],48.1 µM
same,TGI,HCC 2998 [13],17.3 µM
same,TGI,SNB-19,15.2 µM
same,CC50,SNB-19,40.8 µM
same,LC50,OVCAR-5,> 100 µM
same,TGI,OVCAR-5,23.2 µM
same,growth at 0.1 µM,RPMI-8226 [14],97%
same,growth at 1 µM,HCT-116,87%
same,growth at 1 µM,MDA-MB-435 [15],96%
same,growth at 0.01 µM,HCT-15,92%
same,growth at 0.1 µM,MOLT-4 [16],97%
same,growth at 1 µM,UO-31,79%
same,growth at 1 µM,U-251,69%
same,LC50,A498,13.9 µM
same,TGI,A498,4.23 µM
same,growth at 100 µM,M14,-77%
same,growth at 1 µM,K562,80%
COc1ccc(-c2cc(/C=C/C(=O)c3ccc(N)cc3)[nH]n2)cc1,growth at 0.01 µM,NCI-H322M,95%
same,growth at 100 µM,MCF7,-68%
same,growth at 100 µM,MOLT-4 [1],-47%
same,GI50,RPMI-8226 [2],0.6 µM
same,LC50,RPMI-8226 [2],29.4 µM
same,TGI,RPMI-8226 [2],3.22 µM
same,growth at 0.1 µM,SN12C [3],94%
same,GI50,SK-OV-3,4.72 µM
same,LC50,SK-OV-3,63.6 µM
same,TGI,SK-OV-3,18 µM
same,growth at 10 µM,T47D [4],-1%
same,growth at 0.01 µM,HCC 2998 [5],96%
same,growth at 0.1 µM,Hs-578T,97%
same,GI50,SW-620,1.69 µM
same,"LC50 (lethal concentration, 50% net cell kill)",SW-620,56.2 µM
same,TGI,SW-620,5.41 µM
same,growth at 10 µM,COLO 205 [6],-86%
same,growth at 0.01 µM,A549 [7],101%
same,growth at 1 µM,OVCAR-4,52%
same,growth at 100 µM,TK-10,-91%
same,growth at 0.1 µM,786-0,95%
same,growth at 0.1 µM,T47D [8],87%
same,growth at 0.01 µM,ACHN,103%
same,GI50,A549 [9],2.55 µM
same,LC50 (concentration giving 50% net cell kill),A549 [9],46.9 µM
same,TGI,A549 [9],10.2 µM
same,growth at 1 µM,A549 [10],84%
same,growth at 0.1 µM,COLO 205 [11],96%
same,growth at 0.01 µM,SN12C [12],93%
same,GI50,SR,0.79 µM
same,TGI,SR,6.09 µM
same,CC50,SR,60.1 µM
same,GI50,HCC 2998 [13],1.83 µM
same,LC50,HCC 2998 [13],6.17 µM
same,TGI,HCC 2998 [13],3.36 µM
same,GI50,SNB-19,2.29 µM
same,TGI,SNB-19,11.6 µM
same,CC50,SNB-19,44.3 µM
same,GI50,OVCAR-5,2.06 µM
same,LC50,OVCAR-5,16 µM
same,TGI,OVCAR-5,4.92 µM
same,growth at 0.1 µM,RPMI-8226 [14],100%
same,growth at 1 µM,HCT-116,67%
same,growth at 1 µM,MDA-MB-435 [15],85%
same,growth at 0.01 µM,HCT-15,97%
same,growth at 0.1 µM,MOLT-4 [16],98%
same,growth at 1 µM,UO-31,61%
same,growth at 1 µM,U-251,65%
same,GI50,A498,2.03 µM
same,LC50,A498,15.4 µM
same,TGI,A498,4.95 µM
same,growth at 10 µM,MDA-MB-435 [17],-16%
same,growth at 100 µM,M14,-71%
same,growth at 1 µM,K562,58%
